Laboratory results: US20080226685A1, “Product and Method for Controlling Flying Insects” (Reckitt Benckiser (Australia) Pty Limited, priority 2003, published 2008)
Where two headings read alike, the source gives them in different places.

Tests used:
[1] = cited from earlier work
[2] = Stability and packaging suitability, storage at 55° C. (Example 10); type: physicochemical
Protocol: The stability and packaging suitability of various materials was studied. In these studies, metofluthrin (14 mg) was applied to A4 sized 30 gsm paper substrates via wet and dry application at ambient temperature. The samples were placed in pouches prepared from the packaging materials under investigation, sealed tightly and stored at 55° C. After periods of one and two weeks, samples were removed from storage and the dosed paper substrates were measured for metofluthrin content. The packaging materials studied were glass, PVC, amorphous PET (APET), crystalline PET (CPET), aluminium foil, heat sealable polyester films, acrylonitrile methyl acrylate copolymer and PEPET. For the wet dosing of metofluthrin on the paper substrate, the metofluthrin was dissolved in Exxsol D80 or Norpar 12 and the resulting solution applied to the substrate. For dry application, the metofluthrin was dissolved in acetone/ethanol (1:1 by volume) and applied to the substrate. The solvent was then allowed to evaporate over a period of 5-10 minutes.

[3] = tested on: Aedes aegypti mosquitoes; assay: Knockdown studies in a 40 m^3 test chamber with paper dosed with metofluthrin; type: in vivo
Protocol: The inventors have carried out a number of knockdown studies for the control of mosquitoes using paper surfaces impregnated and/or dosed with the vapour active insecticide metofluthrin. The active was applied to each paper surface as a solution in acetone/ethanol (1:1).
Tests were carried out in a 40 m^3 test chamber. The temperature was approximately 28° C. Mixed sex Aedes aegypti mosquitoes were used, aged for 7-10 days after emergence. Up to 200 mosquitoes were introduced into the chamber for each test. Three replicates were done for each treatment. Knocked down mosquitoes were collected at the end of each assessment period and counted.
Knockdown studies against the Dengue mosquito Aedes aegypti using three surface areas a) A2, b) A3 and c) A4 of 18 gsm paper in the above test chamber were carried out. Each paper was treated with 150 mg of metofluthrin. A mosquito coil containing 0.04% Prallethrin was included as a reference control.
A knockdown study against the Dengue mosquito Aedes aegypti using aged paper was conducted. The test involved treating 18 gsm paper of A4 surface area with 2 mg of metofluthrin at 28° C. for up to 12 hours. The treated paper was hung in the centre of the above chamber. A mosquito coil containing 0.04% prallethrin was included in the trial as a reference control.

[4] = Emanation rate from 30 gsm paper dosed with different solvents (Example 8); type: physicochemical; details: 14 mg on A4 30 gsm paper, 28° C.
Protocol: A study of the metofluthrin emanation rate from 30 gsm paper dosed with different solvents was made.
White (A4) paper (30 gsm) having a surface area of […] was dosed with metofluthrin (14 mg) prepared in a range of solvents, as listed below. The papers were aged in a chamber at 28° C. with low air flow for up to a maximum of 168 hours. The amount of metofluthrin remaining on the paper substrate was measured from time 0 hours to 168 hours. The following solvents were used:
The inventors have concluded that linear release kinetics are observed for metofluthrin emanating from paper substrates and accordingly, the line of best fit was fitted to obtain the linear equation to enable the rate of emanation to be determined.

[5] = Emanation rate from 50 gsm A4 paper dosed with different amounts (Example 6); type: physicochemical; details: A4 50 gsm paper, dry dosing in acetone/ethanol (1:1), 25 mg to approximately 5 mg, 28° C., low air flow
Protocol: A study involving dosing 50 gsm paper with different amounts of metofluthrin was made to investigate the affect on the emanation rate from this substrate. Three samples of white (A4) paper (50 gsm) each having a surface area of 1250 cm^2 were dosed with metofluthrin (25, 20 and 14 mg) dissolved in acetone/ethanol (1:1) using the dry dosing technique. The papers were aged in a chamber at 28° C. with low air flow for up to a maximum of 214 hours. The amount of metofluthrin remaining on the paper substrate was measured from time 0 hours to 214 hours. The plot obtained for the emanation rate of metofluthrin from the 25 mg dosed samples was used to estimate the time it would take for 20 and 14 mg of metofluthrin to remain on the samples.

[6] = Emanation rate from 18 gsm paper dosed with different solvents (Example 9); type: physicochemical; details: 14 mg on A4 18 gsm tissue paper, 28° C.
Protocol: A study of the metofluthrin emanation rate from 18 gsm paper dosed with different solvents was made.
Tissue paper (18 gsm) having an effective surface area of 1250 cm^2 (A4) was dosed with metofluthrin (14 mg) prepared in a range of solvents. The papers were then aged in a chamber at 28° C. with low airflow for up to a maximum of 168 hours. The amount of metofluthrin remaining on the paper substrate was measured from time 0 hours to 168 hours. The following solvents were used:
The inventors have concluded that linear release kinetics are observed for metofluthrin emanating from paper substrates and accordingly, the line of best fit was fitted to obtain the linear equation to enable the rate of emanation to be determined: […]

[7] = Emanation rate from 18 gsm paper honeycomb, wet dosed in Norpar 12 (Example 7); type: physicochemical; details: 30 mg on 18 gsm honeycomb, estimated surface area 2199 cm^2, wet dosed in Norpar 12, 28° C., low airflow
Protocol: A study involving dosing 18 gsm paper configured into a honeycomb format with an estimated surface area of 2199 cm^2 with metofluthrin (30 mg) was made to determine the emanation rate from this substrate.
The metofluthrin was dissolved in Norpar 12 and dosed on to the substrate using the wet dosing technique. The papers were hung and aged in a chamber at 28° C. with low airflow for up to a maximum of 80 hours. The amount of metofluthrin remaining on the paper substrate was measured from time 0 hours to 80 hours. The plot obtained for the amount of metofluthrin remaining on samples as a function of time was used to calculate the release rate from this format.

Structure (SMILES): Cc1c(F)c(F)c(COC(=O)[C@@H]2[C@H](/C=C(\Cl)C(F)(F)F)C2(C)C)c(F)c1F (racemic) [tefluthrin]
- vapour pressure (volatility at ambient temperature) ([1]; 20° C.): 8.4 mPa
- vapour pressure (volatility at ambient temperature) ([1]; 40° C.): 50 mPa

Structure (SMILES): CC=CC1C(C(=O)OCc2c(F)c(F)c(COC)c(F)c2F)C1(C)C (racemic) [metofluthrin, 2,3,5,6-tetrafluoro-4-(methoxymethyl)benzyl-(EZ)-(1RS,3RS;1RS,3SR)-2,2-dimethyl-3-(prop-1-enyl)cyclopropanecarboxylate]
- metofluthrin recovered from paper substrate (%) ([2]; packaging APET, dry dosing, acetone/ethanol (1:1), 1 week at 55° C.): 87%
- metofluthrin recovered from paper substrate (%) ([2]; packaging APET, dry dosing, acetone/ethanol (1:1), 2 weeks at 55° C.): 82%
- metofluthrin recovered from paper substrate (%) ([2]; packaging APET, wet dosing, Exxsol D80, 1 week at 55° C.): 95%
- metofluthrin recovered from paper substrate (%) ([2]; packaging APET, wet dosing, Exxsol D80, 2 weeks at 55° C.): 100%
- metofluthrin recovered from paper substrate (%) ([2]; packaging Acrylonitrile methyl acrylate copolymer, wet dosing, Norpar 12, 1 week at 55° C.): 98%
- metofluthrin recovered from paper substrate (%) ([2]; packaging Acrylonitrile methyl acrylate copolymer, wet dosing, Norpar 12, 2 weeks at 55° C.): 99%
- metofluthrin recovered from paper substrate (%) ([2]; packaging Aluminium foil, dry dosing, acetone/ethanol (1:1), 1 week at 55° C.): 99%
- metofluthrin recovered from paper substrate (%) ([2]; packaging Aluminium foil, dry dosing, acetone/ethanol (1:1), 2 weeks at 55° C.): 98%
- metofluthrin recovered from paper substrate (%) ([2]; packaging Aluminium foil, wet dosing, Exxsol D80, 1 week at 55° C.): 99%
- metofluthrin recovered from paper substrate (%) ([2]; packaging Aluminium foil, wet dosing, Exxsol D80, 2 weeks at 55° C.): 100%
- metofluthrin recovered from paper substrate (%) ([2]; packaging CPET, dry dosing, acetone/ethanol (1:1), 1 week at 55° C.): 98%
- metofluthrin recovered from paper substrate (%) ([2]; packaging CPET, dry dosing, acetone/ethanol (1:1), 2 weeks at 55° C.): 99%
- metofluthrin recovered from paper substrate (%) ([2]; packaging CPET, wet dosing, Exxsol D80, 1 week at 55° C.): 96%
- metofluthrin recovered from paper substrate (%) ([2]; packaging CPET, wet dosing, Exxsol D80, 2 weeks at 55° C.): 100%
- metofluthrin recovered from paper substrate (%) ([2]; packaging Glass (bottle), dry dosing, acetone/ethanol (1:1), 1 week at 55° C.): 90%
- metofluthrin recovered from paper substrate (%) ([2]; packaging Glass (bottle), dry dosing, acetone/ethanol (1:1), 2 weeks at 55° C.): 81%
- metofluthrin recovered from paper substrate (%) ([2]; packaging Glass (bottle), wet dosing, Exxsol D80, 1 week at 55° C.): 100%
- metofluthrin recovered from paper substrate (%) ([2]; packaging Glass (bottle), wet dosing, Exxsol D80, 2 weeks at 55° C.): 98%
- metofluthrin recovered from paper substrate (%) ([2]; packaging PEPET, wet dosing, Norpar 12, 1 week at 55° C.): 78%
- metofluthrin recovered from paper substrate (%) ([2]; packaging PEPET, wet dosing, Norpar 12, 2 weeks at 55° C.): 77%
- metofluthrin recovered from paper substrate (%) ([2]; packaging PVC, dry dosing, acetone/ethanol (1:1), 1 week at 55° C.): 64%
- metofluthrin recovered from paper substrate (%) ([2]; packaging PVC, dry dosing, acetone/ethanol (1:1), 2 weeks at 55° C.): 46%
- metofluthrin recovered from paper substrate (%) ([2]; packaging PVC, wet dosing, Exxsol D80, 1 week at 55° C.): 73%
- metofluthrin recovered from paper substrate (%) ([2]; packaging PVC, wet dosing, Exxsol D80, 2 weeks at 55° C.): 44%
- metofluthrin recovered from paper substrate (%) ([2]; packaging heat sealable polyester films, dry dosing, acetone/ethanol (1:1), 2 weeks at 55° C.): 92%
- metofluthrin recovered from paper substrate (%) ([2]; packaging heat sealable polyester films, wet dosing, Exxsol D80, 2 weeks at 55° C.): 100%
- knockdown ([3]; 2 mg on A4 18 gsm paper aged at 28° C., for up to 4 hours, 40 m^3 chamber): greater than 40%
- effectiveness relative to control (mosquito coil 0.04% prallethrin) ([3]; 2 mg on A4 18 gsm paper, at 4 hours of aging at 28° C.): twice as effective as the control
- knockdown effectiveness compared with reference control ([3]; A2, A3 and A4 18 gsm paper each treated with 150 mg, 40 m^3 chamber, approx. 28° C., control = mosquito coil containing 0.04% Prallethrin): more effective than the control
- Release Rate Index ([4]; solvent Acetone/ethanol (1:1), dry dosing (reference = 1)): 1.00
- Release Rate Index ([4]; solvent Exxsol D40, wet dosing, relative to acetone/ethanol): 1.40
- Release Rate Index ([4]; solvent Exxsol D80, wet dosing, relative to acetone/ethanol): 1.41
- Release Rate Index ([4]; solvent Exxsol D140, wet dosing, relative to acetone/ethanol): 0.25
- Release Rate Index ([4]; solvent HoTung C11-14, wet dosing, relative to acetone/ethanol): 1.37
- Release Rate Index ([4]; solvent Isopar G, wet dosing, relative to acetone/ethanol): 1.58
- emanation rate when varying initial amount dosed [5]: constant
- Release Rate Index ([6]; solvent Dowanol DPM, wet dosing, relative to acetone/ethanol): 1.20
- Release Rate Index ([6]; solvent Dowanol TPM, wet dosing, relative to acetone/ethanol): 1.24
- Release Rate Index ([6]; solvent Isopar L, wet dosing, relative to acetone/ethanol): 1.75
- Release Rate Index ([6]; solvent Sasol C12-13, wet dosing, relative to acetone/ethanol): 1.63
- Release Rate Index ([6]; solvent acetone/ethanol (1:1), dry dosing (reference = 1)): 1.00
- Release Rate Index ([6]; solvent n-pentane, dry dosing, relative to acetone/ethanol): 1.50
- emanation rate [7]: 0.22 mg/h

Structure (SMILES): CC1(C)[C@H](C=C(Cl)Cl)[C@H]1C(=O)OCc1c(F)c(F)c(F)c(F)c1F [fenfluthrin]
- vapour pressure (volatility at ambient temperature) ([1]; 20° C.): 1 mPa

Structure (SMILES): C#CC(OC(=O)C1C(C=C(C)C)C1(C)C)/C(C)=C/CC (centres unmarked) [empenthrin]
- vapour pressure (volatility at ambient temperature) ([1]; 23.6° C.): 14 mPa
